SMILES strings stand for the structures. Where only a bound is given, the exact number is not on record here.

Experiment [1] has as its target T1, SHP-2 enzyme (Met1-Leu525), SHP2wt (Homo sapiens, UniProt Q06124).
T1 construct: synthetized by Origene, Met1-Leu525, cat #TP750155; purchased Origene TP750155
T1 sequence (Q06124 1-525): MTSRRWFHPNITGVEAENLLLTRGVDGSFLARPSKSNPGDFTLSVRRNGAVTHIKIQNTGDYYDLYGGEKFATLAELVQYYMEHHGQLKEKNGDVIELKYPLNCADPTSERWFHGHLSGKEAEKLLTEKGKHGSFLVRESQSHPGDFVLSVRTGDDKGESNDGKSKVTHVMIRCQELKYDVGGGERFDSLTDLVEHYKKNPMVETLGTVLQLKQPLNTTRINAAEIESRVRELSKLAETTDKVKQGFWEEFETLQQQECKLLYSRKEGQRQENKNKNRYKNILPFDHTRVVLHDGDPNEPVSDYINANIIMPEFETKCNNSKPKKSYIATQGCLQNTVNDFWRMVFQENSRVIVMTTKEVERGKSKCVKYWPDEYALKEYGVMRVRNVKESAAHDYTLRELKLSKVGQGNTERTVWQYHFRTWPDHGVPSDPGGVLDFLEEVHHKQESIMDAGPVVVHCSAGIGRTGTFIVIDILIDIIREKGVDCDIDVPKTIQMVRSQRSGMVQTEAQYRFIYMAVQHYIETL
In words: SHP2 inhibition enzymatic assay. Format: biochemical. The note with it: 0.5 nM SHP-2 activated by 500 nM IRS1 peptide, 75 μM DiFMUP substrate. Here is the method: The assay was performed as described in YP Chen et al, Nature (535) 2016. Assay volume of 20 μL/well was assembled in 384 well black polystyrene low-binding microplates (Greiner), using the following buffer: 60 mM HEPES pH 7.2, 75 mM NaCl, 75 mM KCl, 1 mM EDTA pH 8, 0.05% tween-20, 5 mM DTT. The SHP-2 enzyme (synthetized by Origene, Met1-Leu525, cat #TP750155) was used at a final concentration of 0.5 nM. The enzyme was activated by 500 nM IRS1 peptide (sequence: H2N-LN(pY)IDLDLV(dPEG8)LST(pY)ASINFQK-amide; Wang et al., iScience 25,104009, Apr. 15, 2022, https://doi.org/10.1016/j.isci.2022.104009) and incubated with 75 μM DiFMUP (Sigma) as substrate.
Briefly, DMSO serially diluted testing compounds were transferred to the bottom of the assay plate. SHP2 was then added together with the IRS1 peptide 30 min post incubation, the DiFMUP substrate was added to the reaction and incubated 30 min at rt. Finally 5 μL of 160 μM bpV (potassium bisperoxo[1,10-phenanthroline]oxovanadate [V], Sigma) were added to stop and quench the reaction. The fluorescence was detected by a microplate reader (Envision, PerkinElmer) according to the DiFMUP excitation and emission wavelength. The lower the fluorescence the higher the SHP2 inhibition.
The activity of each compound dilution was calculated as percentage of inhibition between vehicle (DMSO, 0% inhibition) and no enzyme (100% inhibition). The percentage inhibition is fitted against the compound dilutions with a four-parameter logistic regression. The inflection point (i.e. the concentration at which half-maximal inhibition is achieved) is the IC50.
Legend: A indicates IC50 less or equal to 0.05 μM; B indicates IC50 greater than 0.05 μM and lower or equal to 0.3 μM.

Experiment [2] deals with phospho-ERK1/2 (Thr202/Tyr204). In words: Phospho-ERK cellular assay. Format: cell-based. Conditions: Homo sapiens; KYSE-520 cells, 2 h at 37° C, TR-FRET; read-out: pERK IC50. The method, then: ERK phosphorylation was detected using the “Advanced phospho-ERK1/2 (Thr202/Tyr204)” TR-FRET kit (Cisbio, Cat #64AERPEG/H), following the manufacturer reagents and instructions.
Briefly, 20.000/well KYSE-520 cells (DSMZ ACC 371) were plated in 6 μL RPMI-1640 (Invitrogen) growth medium, into 384 white low-volume high base TC microplates (Greiner). After an overnight incubation, cells were treated with DMSO serial diluted compounds and incubated for 2 h at 37° C. After incubation, 2 μL/well of 4×Lysis Buffer (Cisbio 64KL1FDF), were added and incubated with cells for 30 min on gentle shaking. Finally, lysates were added with 2 μL/well of Eu cryptate (donor) and D2 (acceptor) conjugated antibodies (as provided by the Cisbio kit #64AERPEG/H) diluted 1:100 in Detection Buffer (as provided by the Cisbio kit #64AERPEG/H). Plates were then sealed and incubated at rt in the dark. After an overnight incubation, the TR-FRET signal was detected on a suitable reader (Envision, PerkinElmer).
The lower the TR-FRET signal the higher the higher the SHP2 inhibition in cells.
The activity of each compound dilution was calculated as percentage between vehicle DMSO treated cells and no cells, 0% inhibition and 100% inhibition respectively. The percentage activity is fitted against the compound dilutions with a four-parameter logistic regression. The inflection point (i.e. the concentration at which half-maximal inhibition is achieved) is the IC50.
Legend: “+” indicates IC50 equal or higher than 0.5 μM; “++” indicates IC50 less than 0.5 μM and higher or equal to 0.1 μM; “+++” indicates IC50 less than 0.1 μM.
In general terms: Time-resolved FRET reads energy transfer from a long-lived donor to a nearby acceptor.

Broadly, the IC50 is the concentration that inhibits the measured activity by half. For the compound `Cn1c(N2CCC3(CC2)Cn2nccc2[C@H]3N)ncc(-c2cccc(F)c2F)c1=O` [Example 5, (S)-2-(4′-amino-4′H,6′H-spiro[piperidine-4,5′-pyrrolo[1,2-b]pyrazol]-1-yl)-5-(2,3-difluorophenyl)-3-methylpyrimidin-4(3H)-one], the half-maximal inhibitory concentration (IC50) is 50 to 300 nM in experiment [1] and greater than 500 nM in experiment [2].
For the compound `N[C@@H]1c2ccnn2CC12CCN(c1cnc(Sc3cccc(C(F)F)c3F)cn1)CC2` [Example 58, (S)-1-(5-((3-(difluoromethyl)-2-fluorophenyl)thio)pyrazin-2-yl)-4′H,6′H-spiro[piperidine-4,5′-pyrrolo[1,2-b]pyrazol]-4′-amine], the figures for the IC50 in experiment [1] and in experiment [2] were no more than 50 nM and less than 100 nM, respectively.
The matching figures for `N[C@@H]1c2ccnn2CC12CCN(c1cnc(Sc3ccc(F)cc3Cl)cn1)CC2` [Example 34, (S)-1-(5-((2-chloro-4-fluorophenyl)thio)pyrazin-2-yl)-4′H,6′H-spiro[piperidine-4,5′-pyrrolo[1,2-b]pyrazol]-4′-amine]: no more than 50 nM and less than 100 nM.
Taken in the same sequence, the figures for `Cn1cc2c(Cl)c(Sc3cnc(N4CCC5(CC4)Cn4nccc4[C@H]5N)cn3)ccc2n1` [Example 84, (S)-1-(5-((4-chloro-2-methyl-2H-indazol-5-yl)thio)pyrazin-2-yl)-4′H,6′H-spiro[piperidine-4,5′-pyrrolo[1,2-b]pyrazol]-4′-amine] were no more than 50 nM and less than 100 nM.
The matching figures for `N[C@@H]1c2ccnn2CC12CCN(c1cnc(Sc3ccc(OC(F)F)c4ncccc34)cn1)CC2` [Example 73, (S)-1-(5-((8-(difluoromethoxy)quinolin-5-yl)thio)pyrazin-2-yl)-4′H,6′H-spiro[piperidine-4,5′-pyrrolo[1,2-b]pyrazol]-4′-amine]: no more than 50 nM and less than 100 nM.
Consider `COc1cccc2c(Sc3cnc(N4CCC5(CC4)Cn4nccc4[C@H]5N)cn3)ccnc12` [Example 37, (S)-1-(5-((8-methoxyquinolin-4-yl)thio)pyrazin-2-yl)-4′H,6′H-spiro[piperidine-4,5′-pyrrolo[1,2-b]pyrazol]-4′-amine], for which the 50% inhibitory concentration (IC50) in experiment [1] was no more than 50 nM; in experiment [2], less than 100 nM.
For `Cn1c(N2CCC3(CC2)Cn2nccc2[C@H]3N)ccc(-c2cccc(Cl)c2Cl)c1=O` [Example 11, (S)-6-(4′-amino-4′H,6′H-spiro[piperidine-4,5′-pyrrolo[1,2-b]pyrazol]-1-yl)-3-(2,3-dichlorophenyl)-1-methylpyridin-2(1H)-one], the results for the IC50 in experiment [1] and in experiment [2] were 50 to 300 nM and greater than 500 nM, respectively.
Turning to `N[C@@H]1c2ccnn2CC12CCN(c1cnc(Sc3ccc(Cl)c4ncccc34)cn1)CC2` [Example 70, (S)-1-(5-((8-chloroquinolin-5-yl)thio)pyrazin-2-yl)-4′H,6′H-spiro[piperidine-4,5′-pyrrolo[1,2-b]pyrazol]-4′-amine], the half-inhibitory concentration (IC50) in experiment [1] was no more than 50 nM; in experiment [2], less than 100 nM.
The matching figures for `Cc1ccccc1Sc1cnc(N2CCC3(CC2)Cn2nccc2[C@H]3N)cn1` [Example 26, (S)-1-(5-(o-tolylthio)pyrazin-2-yl)-4′H,6′H-spiro[piperidine-4,5′-pyrrolo[1,2-b]pyrazol]-4′-amine]: no more than 50 nM and less than 100 nM.
`N[C@@H]1c2ccnn2CC12CCN(c1cnc(Sc3ccc(F)cc3F)cn1)CC2` [Example 32, (S)-1-(5-((2,4-difluorophenyl)thio)pyrazin-2-yl)-4′H,6′H-spiro[piperidine-4,5′-pyrrolo[1,2-b]pyrazol]-4′-amine]: the IC50 in experiment [1] was no more than 50 nM; in experiment [2] it was less than 100 nM.
Taken in the same sequence, the figures for `Cn1cc2ccc(Sc3cnc(N4CCC5(CC4)Cn4nccc4[C@H]5N)cn3)c(F)c2n1` [Example 83, (S)-1-(5-((7-fluoro-2-methyl-2H-indazol-6-yl)thio)pyrazin-2-yl)-4′H,6′H-spiro[piperidine-4,5′-pyrrolo[1,2-b]pyrazol]-4′-amine] were no more than 50 nM and less than 100 nM.
Taken in the same sequence, the figures for `N#Cc1cccc(Sc2cnc(N3CCC4(CC3)Cn3nccc3[C@H]4N)cn2)c1C(F)(F)F` [Example 43, (S)-3-((5-(4′-amino-4′H,6′H-spiro[piperidine-4,5′-pyrrolo[1,2-b]pyrazol]-1-yl)pyrazin-2-yl)thio)-2-(trifluoromethyl)benzonitrile] were no more than 50 nM and less than 100 nM.
Taken in the same sequence, the figures for `Cc1cc(Cl)ccc1Sc1cnc(N2CCC3(CC2)Cn2nccc2[C@H]3N)cn1` [Example 40, (S)-1-(5-((4-chloro-2-methylphenyl)thio)pyrazin-2-yl)-4′H,6′H-spiro[piperidine-4,5′-pyrrolo[1,2-b]pyrazol]-4′-amine] were no more than 50 nM and 100 to 500 nM.
On to `N[C@@H]1c2ccnn2CC12CCN(c1cnc(Sc3cc(C(F)F)ccc3F)cn1)CC2` [Example 74, (S)-1-(5-((5-(difluoromethyl)-2-fluorophenyl)thio)pyrazin-2-yl)-4′H,6′H-spiro[piperidine-4,5′-pyrrolo[1,2-b]pyrazol]-4′-amine], for which the half-inhibitory concentration (IC50) in experiment [1] is no more than 50 nM; in experiment [2], 100 to 500 nM.
Taken in the same sequence, the figures for `N[C@@H]1c2ccnn2CC12CCN(c1cnc(-c3cccc(Cl)c3Cl)cn1)CC2` [Example 31, (S)-1-(5-(2,3-dichlorophenyl)pyrazin-2-yl)-4′H,6′H-spiro[piperidine-4,5′-pyrrolo[1,2-b]pyrazol]-4′-amine] were no more than 50 nM and greater than 500 nM.
On to `COc1cccc(Sc2cnc(N3CCC4(CC3)Cn3nccc3[C@H]4N)cn2)c1F` [Example 60, (S)-1-(5-((2-fluoro-3-methoxyphenyl)thio)pyrazin-2-yl)-4′H,6′H-spiro[piperidine-4,5′-pyrrolo[1,2-b]pyrazol]-4′-amine], for which the IC50 in experiment [1] is no more than 50 nM; in experiment [2], less than 100 nM.
On to `N[C@@H]1c2ccnn2CC12CCN(c1cnc(Oc3ccc(F)cc3)cn1)CC2` [Example 7, (S)-1-(5-(4-fluorophenoxy)pyrazin-2-yl)-4′H,6′H-spiro[piperidine-4,5′-pyrrolo[1,2-b]pyrazol]-4′-amine], for which the IC50 in experiment [1] was no more than 50 nM; in experiment [2] it was less than 100 nM.
As to `N[C@@H]1c2ccnn2CC12CCN(c1cnc(Sc3cccc4ncccc34)cn1)CC2` [Example 61, (S)-1-(5-(quinolin-5-ylthio)pyrazin-2-yl)-4′H,6′H-spiro[piperidine-4,5′-pyrrolo[1,2-b]pyrazol]-4′-amine], the IC50 is no more than 50 nM in experiment [1] and less than 100 nM in experiment [2].
Taken in the same sequence, the figures for `N[C@@H]1c2ccnn2CC12CCN(c1cnc3nc(-c4cccc(Cl)c4Cl)ccc3n1)CC2` [Example 9, (S)-1-(6-(2,3-dichlorophenyl)pyrido[2,3-b]pyrazin-2-yl)-4′H,6′H-spiro[piperidine-4,5′-pyrrolo[1,2-b]pyrazol]-4′-amine] were no more than 50 nM and greater than 500 nM.

These data come from patent publication US20260109699A1, “AZOLE DERIVATIVES AS SHP2 INHIBITORS” (IRBM S.P.A., priority 2022, published 2026).
